Laboratory results taken from patent publication US20220241249A1, “PHARMACEUTICAL COMPOSITION AND KIT CONTAINING NOVEL PENAM DERIVATIVE OR SALT THEREOF AND ONE OR MORE COMPOUNDS SELECTED FROM beta-LACTAMASE INHIBITORY COMPOUND AND ANTIBACTERIAL COMPOUND OR SALTS THEREOF” (priority 2019, published 2022).
Read-outs that look alike come from different tables or passages of the source.

Key:
Type in all cases: cell-based
[1] = tested on: Carbapenem-resistant Acinetobacter A514 strain; experiment: MIC of test compound combined with a plurality of β-lactamase inhibitors
Protocol: (§1) By using a broth microdilution method, the combinational effect of a test compound and a plurality of β-lactamase inhibitors was evaluated.
(§2) The evaluation test for antibacterial activity was performed in the same manner as in Test Example 1.
(§3) As bacterial strains, Carbapenem-resistant Acinetobacter A514 and A515 strains were used.

[2] = tested on: Carbapenem-resistant Acinetobacter A515 strain; experiment: as above; conditions: for antibacterial activity in combination with two β-lactamase inhibitors: against all the bacterial strains (Acinetobacter A514 and A515), with SBT and AVI
Protocol: as §1, §2, §3

[3] = tested on: Escherichia coli TK-1765 strain producing CMY-2 (strain E); experiment: MIC of test compound alone or with β-lactamase inhibitor at 4 μg/mL
Protocol: (§4) By using a broth microdilution method, the combinational effect of a test compound and a β-lactamase inhibitor was evaluated.
as §2
Escherichia coli TK-1765 strain producing CMY-2 (hereinafter, called strain E)

[4] = tested on: Escherichia coli TK-1747 strain producing CTX-M-15 (strain A); experiment: as above
Protocol: as §4, §2
Escherichia coli TK-1747 strain producing CTX-M-15 (hereinafter, called strain A),

[5] = tested on: Klebsiella pneumoniae Y-1020 strain producing KPC-3 and SHV-12 (strain B); experiment: as above; conditions: for MIC: Strain B; for antibacterial activity in combination with a β-lactamase inhibitor versus without: for all the bacterial strains (strains A to E), summary of Tables 43 to 47
Protocol: as §4, §2

[6] = tested on: Escherichia coli TK-3113 strain producing IMP-8 (strain D); experiment: as above
Protocol: as §4, §2
Escherichia coli TK-3113 strain producing IMP-8 (hereinafter, called strain D),
(§5) An antibacterial activity evaluation test was performed in the same manner as in Test Example 6.
(§6) As the bacterial strain, the strains B, C, and D producing β-lactamase and a Klebsiella pneumoniae Y-1069 strain (hereinafter, called strain F) producing OXA-48 and CTX-M-15 were used.

[7] = tested on: Klebsiella pneumoniae Y-1133 strain producing NDM-1, OXA-48, and CTX-M-15 (strain C); experiment: as above
Protocol: as §4, §2
Klebsiella pneumoniae Y-1133 strain producing NDM-1, OXA-48, and CTX-M-15 (hereinafter, called strain C),
as §5, §6

[8] = tested on: Klebsiella pneumoniae ATCC13883 strain (Klebsiella pneumoniae A); experiment: Combinational effect of test compound and antibacterial compound, checkerboard FIC index
Protocol: (§7) By using a broth microdilution method, the combinational effect of antibacterial activity of a test compound and an antibacterial compound was evaluated.
(§8) As bacterial strains, an Escherichia coli ATCC25922 strain (hereinafter, called Escherichia coli A), a Klebsiella pneumoniae ATCC13883 strain (hereinafter, called Klebsiella pneumoniae A), and a Pseudomonas aeruginosa ATCC27853 strain (hereinafter, called Pseudomonas aeruginosa A) were used.
(§9) The minimum inhibitory concentration (hereinafter, called MIC) was measured according to the Clinical and Laboratory Standards Institute (CLSI) standard method by using the following broth microdilution method.
(§10) The bacterial cells that had been cultured overnight on a Mueller Hinton agar medium were scraped off, suspended at a density equivalent to 0.5 McFarland standard. The obtained suspension was diluted at 10 fold, thereby obtaining an inoculum. Cation-adjusted Mueller Hinton media containing only a test compound, containing only an antibacterial compound, or containing a test compound and an antibacterial compound were inoculated with 0.005 mL of the inoculum, and the cells were cultured at 35° C. for 18 to 20 hours. The minimum drug concentration at which the growth of bacteria was not visually observed was defined as MIC (μg/mL).
(§11) The FIC Index is the minimum value calculated by the following formula.
(§12) FIC Index=(MIC value obtained in a case where test compound is used in combination/MIC value obtained in a case where test compound is used alone)+(MIC value obtained in a case where antibacterial compound is used in combination/MIC value obtained in a case where antibacterial compound is used alone)
(§13) In a case where the FIC Index was 0.5 or less, it was decided that the use of two drugs in combination brings about a synergistic effect.
(§14) In a case where the FIC Index was more than 0.5 and 1 or less, it was decided that the use of two drugs in combination brings about an additive effect. (Diagnostic Microbiology and Infectious Disease, 2004, Vol. 49, p. 197)

[9] = tested on: Escherichia coli ATCC25922 strain (Escherichia coli A); experiment: as above
Protocol: as §7, §8, §9, §10, §11, §12, §13, §14

[10] = tested on: Pseudomonas aeruginosa ATCC27853 strain (Pseudomonas aeruginosa A); experiment: as above; conditions: for FIC index: Pseudomonas aeruginosa A, checkerboard; for combinational effect with other antibacterial compounds: main strains of Gram-negative bacteria, summary of Tables 40 to 42
Protocol: as §7, §8, §9, §10, §11, §12, §13, §14

[11] = Table 48, against the Carbapenem-resistant Acinetobacter A514 and A515 strains (so in the source), read-out: MIC
[12] = Table 49, against the Carbapenem-resistant Acinetobacter A515 strain, read-out: MIC
[13] = test compound alone (β-lactamase inhibitor N/A)

## NC(=O)[C@@H]1CC[C@@H]2CN1C(=O)N2OS(=O)(=O)O [AVI, avibactam sodium]
[1]; [11]
  MIC: > 32 µg/mL
[2]; [12]
  MIC: > 32 µg/mL

## CC(C)(O/N=C(\C(=O)N[C@@H]1C(=O)N2C[C@@](C(=O)O)(N3CCN(NC(=O)C(=O)c4ccc(O)c(O)c4Cl)C3=O)S[C@H]12)c1csc(N)n1)C(=O)O [Compound A]
[3]; [13]
  MIC: 1 µg/mL
[3]; with AVI at 4 μg/mL
  MIC: 0.06 µg/mL
[3]; with SBT at 4 μg/mL
  MIC: 0.5 µg/mL
[3]; with TAZ at 4 μg/mL
  MIC: 0.25 µg/mL
[3]; with VAB at 4 μg/mL
  MIC: 0.12 µg/mL
[2]
  antibacterial activity in combination with two β-lactamase inhibitors: High antibacterial activity
[4]; AVI added at 4 μg/mL
  MIC: <0.015 µg/mL
[4]; CVA added at 4 μg/mL
  MIC: <0.015 µg/mL
[4]; NAC added at 4 μg/mL
  MIC: <0.015 µg/mL
[4]; SBT added at 4 μg/mL
  MIC: <0.015 µg/mL
[4]; TAZ added at 4 μg/mL
  MIC: <0.015 µg/mL
[4]; VAB added at 4 μg/mL
  MIC: 0.06 µg/mL
[4]; ZID added at 4 μg/mL
  MIC: <0.015 µg/mL
[4]; [13]
  MIC: 0.12 µg/mL
[5]; AVI added at 4 μg/mL
  MIC: 0.25 µg/mL
[5]; NAC added at 4 μg/mL
  MIC: <0.015 µg/mL
[5]; VAB added at 4 μg/mL
  MIC: 1 µg/mL
[5]; ZID added at 4 μg/mL
  MIC: <0.015 µg/mL
[5]; [13]
  MIC: 2 µg/mL
[5]
  antibacterial activity in combination with a β-lactamase inhibitor versus without: higher antibacterial activity
[6]; NAC added at 4 μg/mL
  MIC: 0.06 µg/mL
[6]; ZID added at 4 μg/mL
  MIC: <0.015 µg/mL
[6]; [13]
  MIC: 0.5 µg/mL
[7]; AVI added at 4 μg/mL
  MIC: 0.12 µg/mL
[7]; NAC added at 4 μg/mL
  MIC: 0.03 µg/mL
[7]; ZID added at 4 μg/mL
  MIC: <0.015 µg/mL
[7]; [13]
  MIC: 0.5 µg/mL
[8]; in combination with CAZ
  FIC index: 0.625
[8]; in combination with IPM
  FIC index: 0.375
[8]; in combination with LVFX
  FIC index: 0.75
[8]; in combination with MPC
  FIC index: <0.5
[8]; in combination with PIPC
  FIC index: 0.375
[8]; in combination with PL-B
  FIC index: 0.125
[8]; in combination with RFP
  FIC index: 0.502
[8]; in combination with TMP
  FIC index: 0.375
[9]; in combination with AMK
  FIC index: 0.5625
[9]; in combination with CAZ
  FIC index: 0.625
[9]; in combination with IPM
  FIC index: 0.5156
[9]; in combination with LVFX
  FIC index: 0.75
[9]; in combination with MPC
  FIC index: 0.5078
[9]; in combination with PIPC
  FIC index: 0.5625
[9]; in combination with RFP
  FIC index: 0.625
[9]; in combination with TC
  FIC index: 0.75
[9]; in combination with TMP
  FIC index: 0.625
[10]; in combination with AMK
  FIC index: 0.5
[10]; in combination with CAZ
  FIC index: 0.5625
[10]; in combination with IPM
  FIC index: 0.252
[10]; in combination with LVFX
  FIC index: 0.5625
[10]; in combination with PIPC
  FIC index: 0.5
[10]; in combination with PL-B
  FIC index: 0.625
[10]; in combination with RFP
  FIC index: 0.281
[10]; in combination with TC
  FIC index: 0.375
[10]
  combinational effect with other antibacterial compounds: additive or synergistic effect

## Nc1nc(/C(=N/OC2(C(=O)O)CCC2)C(=O)N[C@@H]2C(=O)N3C[C@@](C(=O)O)(N4CCN(NC(=O)C(=O)c5ccc(O)c(O)c5Cl)C4=O)S[C@H]23)cs1 [Compound B]
[3]; [13]
  MIC: 1 µg/mL
[3]; with AVI at 4 μg/mL
  MIC: 0.03 µg/mL
[3]; with SBT at 4 μg/mL
  MIC: 0.5 µg/mL
[3]; with TAZ at 4 μg/mL
  MIC: 0.12 µg/mL
[3]; with VAB at 4 μg/mL
  MIC: 0.03 µg/mL
[2]
  antibacterial activity in combination with two β-lactamase inhibitors: High antibacterial activity
[5]; AVI added at 4 μg/mL
  MIC: 0.25 µg/mL
[5]; NAC added at 4 μg/mL
  MIC: <0.015 µg/mL
[5]; VAB added at 4 μg/mL
  MIC: <0.015 µg/mL
[5]; ZID added at 4 μg/mL
  MIC: <0.015 µg/mL
[5]; [13]
  MIC: 2 µg/mL
[5]
  antibacterial activity in combination with a β-lactamase inhibitor versus without: higher antibacterial activity
[6]; AVI added at 4 μg/mL
  MIC: 0.25 µg/mL
[6]; NAC added at 4 μg/mL
  MIC: <0.015 µg/mL
[6]; ZID added at 4 μg/mL
  MIC: <0.015 µg/mL
[6]; [13]
  MIC: 0.5 µg/mL
[7]; AVI added at 4 μg/mL
  MIC: 0.12 µg/mL
[7]; NAC added at 4 μg/mL
  MIC: <0.015 µg/mL
[7]; ZID added at 4 μg/mL
  MIC: <0.015 µg/mL
[7]; [13]
  MIC: 1 µg/mL
[8]; in combination with AMK
  FIC index: 0.75
[8]; in combination with CAZ
  FIC index: 0.625
[8]; in combination with IPM
  FIC index: 0.375
[8]; in combination with LVFX
  FIC index: 0.563
[8]; in combination with MPC
  FIC index: <0.375
[8]; in combination with PIPC
  FIC index: <0.5
[8]; in combination with PL-B
  FIC index: 0.156
[8]; in combination with RFP
  FIC index: 0.281
[8]; in combination with TMP
  FIC index: 0.375
[9]; in combination with CAZ
  FIC index: 0.625
[9]; in combination with MPC
  FIC index: 0.508
[9]; in combination with PIPC
  FIC index: 0.53
[9]; in combination with RFP
  FIC index: 0.531
[9]; in combination with TMP
  FIC index: 0.531
[10]; in combination with AMK
  FIC index: 0.375
[10]; in combination with CAZ
  FIC index: 0.563
[10]; in combination with IPM
  FIC index: 0.5
[10]; in combination with LVFX
  FIC index: 0.625
[10]; in combination with PIPC
  FIC index: 0.375
[10]; in combination with PL-B
  FIC index: 0.531
[10]; in combination with RFP
  FIC index: 0.313
[10]; in combination with TMP
  FIC index: 0.502
[10]
  combinational effect with other antibacterial compounds: additive or synergistic effect

## C[C@@H](O)[C@H]1C(=O)N2C(C(=O)O)=C(S[C@@H]3CN[C@H](C(=O)N(C)C)C3)[C@H](C)[C@H]12 [MEPM, meropenem hydrate, reference compound]
[1]; [11]
  MIC: > 32 µg/mL
[2]; [12]
  MIC: > 32 µg/mL
[5]; Klebsiella pneumoniae, test compound alone (β-lactamase inhibitor N/A), read-out: MIC
  MIC: 32 µg/mL
[7]; Klebsiella pneumoniae, test compound alone (β-lactamase inhibitor N/A)
  MIC: > 128 µg/mL

## CC1(C)[C@H](C(=O)O)N2C(=O)C[C@H]2S1(=O)=O [SBT, sulbactam sodium]
[1]; Acinetobacter
  MIC: > 32 µg/mL
[2]; Acinetobacter
  MIC: > 32 µg/mL
